From US20260008817A1, “CYCLIC PEPTIDE OR SALT THEREOF, AND USES THEREOF” (FUJIFILM Corporation, priority 2023, published 2026) come the findings set out here.

In data set [1] the test system is BaF3 cells stably expressing FGFR (avian). Nature of the data set: BaF3 cell proliferation-promoting effect, avian FGFR. In kind it is cell-based. The following applies: viable cells at the addition concentration (0.001 to 10 nmol/L) with largest number; 2 nights. The method, then: (§1) The FGFR phosphorylation ability of the cyclic peptide complex was evaluated using the BaF3 cell proliferation-promoting effect in which FGFR was stably expressed.
(§2) BaF3 cells stably expressing FGFR were established by introducing a vector (human: Gene Copoeia, EX-Y2820-M67, bovine: sequence of Accession No. A4IFL5 was introduced into pCDNA3.1/Hygro(+) Mammalian Expression Vector (Thermo, V87020), porcine: sequence of Accession No. A0A8D1E4H1 was introduced into pCDNA3.1/Hygro(+) Mammalian Expression Vector (Thermo, V87020), and avian: sequence of Accession No. P21804 was introduced into pCDNA3.1/Hygro(+) Mammalian Expression Vector (Thermo, V87020)) into which FGFR gene had been incorporated, into BaF3 cells using Nucleofector and performing drug selection of cells into which the FGFR gene had been introduced using hygromycin.
(§3) The evaluation of the proliferation-promoting effect of BaF3 cells in which FGFR is stably expressed was performed by the following method. […] The number of viable cells was calculated from the imaging data, and the cell proliferation-promoting effect was evaluated according to the following evaluation criteria. […]

For data set [2], the system named is BaF3 cells stably expressing FGFR (porcine). The data set is described as follows: BaF3 cell proliferation-promoting effect, porcine FGFR. Type of data set: cell-based. The following applies: viable cells at the addition concentration (0.001 to 10 nmol/L) with largest number; 2 nights. How it is done: as §1, §2, §3
The subject of data set [3] is BaF3 cells stably expressing FGFR (human). Nature of the data set: BaF3 cell proliferation-promoting effect, human FGFR. Type of data set: cell-based. The following applies: viable cells at the addition concentration (0.001 to 10 nmol/L) with largest number; 2 nights. The method, then:
as §1, §2, §3

Data set [4] deals with BaF3 cells stably expressing FGFR (bovine). Nature of the data set: BaF3 cell proliferation-promoting effect, bovine FGFR. In kind it is cell-based. The following applies: viable cells at the addition concentration (0.001 to 10 nmol/L) with largest number; 2 nights. How it is done: as §1, §2, §3
Data set [5] can be described thus: Alkali treatment stability of cyclic peptide (LC). Type of data set: physicochemical. Particulars: 0.5 mol/L sodium hydroxide aqueous solution added, room temperature, 3 hours. The method, then:
In addition, the stability of the cyclic peptide (SEQ ID NO: 335) containing a cysteine residue in the cyclized portion and the cyclic peptide (SEQ ID NO: 327) containing a homocysteine residue in the cyclized portion was compared under the following alkali treatment, which is a more severe condition.
The alkali treatment was performed by the following method. 25 μL of a 0.2 mg/mL cyclic peptide aqueous solution was prepared, 58.8 μL of a 0.5 mol/L sodium hydroxide aqueous solution was added to the aqueous solution, and the mixture was incubated at room temperature for 3 hours to obtain an aqueous solution of the cyclic peptide alkali-treated. The total area of all the peaks in LC/MS of the cyclic peptide before the alkali treatment was set to 100%, and the proportion of the total area of all the peaks in LC/MS of the aqueous solution of the cyclic peptide alkali-treated was determined to calculate the residual rate of the cyclic peptide.
The LC conditions used for the evaluation of molecular stability are the same as those in the measurement of the above-described cyclic peptide treated with a reducing agent.

Data set [6] addresses Recombinant Human FGFR1 alpha (IIIc) Fc Chimera Protein, CF (R&D systems, 658-FR-050) (human) (UniProt P11362). Nature of the data set: SPR grade, peptide 10 nmol/L over FGFR1-Fc. The following applies: scale: moleculesofcyclicpeptide/onemoleculeoffgfr.
For data set [7], the target named is T1, FGFR4 Protein, Human, Recombinant (His Tag) (Sino Biological, 10538-H08H) (human, UniProt P22455 22-369).
T1 construct: bought; flowed at 1 umol/L over immobilized peptide
T1 sequence (looked up): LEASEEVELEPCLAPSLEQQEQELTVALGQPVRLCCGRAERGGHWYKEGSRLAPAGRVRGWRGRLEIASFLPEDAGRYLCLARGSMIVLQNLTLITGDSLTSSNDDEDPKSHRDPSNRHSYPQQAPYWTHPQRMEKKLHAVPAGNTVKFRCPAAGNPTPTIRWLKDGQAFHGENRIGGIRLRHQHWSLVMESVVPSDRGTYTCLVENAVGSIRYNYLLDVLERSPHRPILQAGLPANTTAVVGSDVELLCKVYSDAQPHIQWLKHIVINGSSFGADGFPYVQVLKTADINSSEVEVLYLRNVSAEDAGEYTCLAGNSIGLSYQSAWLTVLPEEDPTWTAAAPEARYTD
Nature of the data set: SPR grade, FGFR 1 umol/L over immobilized peptide. The method, then: (§4) A CM5 sensor chip (Cytiva, 29149603) was set in Biacore-T200 (manufactured by Cytiva) which is a surface plasmon resonance device, and an HBS-EP buffer (Cytiva, BR100826) was added as a running buffer at a flow rate of 10 μL/min to equilibrate the flow channel. Next, 70 μL of a mixed aqueous solution of 0.2 mol/L 1-(3-dimethylaminopropyl)-3-ethylcarbodiimide (EDC) and 0.05 mol/L N-hydroxysuccinimide (NHS) was added to activate the sensor chip. Then, a cyclic peptide prepared to 2 mg/mL in HBS-EP buffer was added thereto to perform immobilization at about 200 RU. Thereafter, the blocking treatment was performed with an ethanolamine solution. In addition, in another flow channel of the same sensor chip, blocking treatment was performed immediately after activation without […].
(§5) After various FGFRs (FGFR1 Protein, Human, Recombinant (His Tag) (Sino Biological, 10616-H08H), FGFR3 Protein, Human, Recombinant (ECD, His Tag) (Sino Biological, 16044-H08H), FGFR4 Protein, Human, Recombinant (His Tag) (Sino Biological, 10538-H08H)) diluted with HBS-EP to 1 μmol/L at 25° C. was added to each flow channel of the cyclic peptide-immobilized sensor chip prepared above, for 10 minutes, HBS-EP was allowed to flow as a running buffer for 30 minutes, and the binding of various FGFRs to the cyclic peptide was measured. […] The binding amount of the cyclic peptide was evaluated from the difference between the measured value of Biacore-T200 in the flow channel in which the cyclic peptide was immobilized and the measured value of Biacore-T200 in the flow channel in which the cyclic peptide was not immobilized, in a case where 1 μmol/L FGFR was allowed to flow.
(§6) The binding amount of FGFR evaluated above was normalized to the binding amount of FGFR molecules per one molecule of the cyclic peptide using the molecular weights of the cyclic peptide and FGFR, and the binding affinity to FGFR was evaluated according to the following evaluation criteria.

Data set [8] deals with T2, FGFR1 Protein, Human, Recombinant (His Tag) (Sino Biological, 10616-H08H) (human, UniProt P11362-7 22-374).
T2 construct: bought; flowed at 1 umol/L over immobilized peptide
T2 sequence (looked up): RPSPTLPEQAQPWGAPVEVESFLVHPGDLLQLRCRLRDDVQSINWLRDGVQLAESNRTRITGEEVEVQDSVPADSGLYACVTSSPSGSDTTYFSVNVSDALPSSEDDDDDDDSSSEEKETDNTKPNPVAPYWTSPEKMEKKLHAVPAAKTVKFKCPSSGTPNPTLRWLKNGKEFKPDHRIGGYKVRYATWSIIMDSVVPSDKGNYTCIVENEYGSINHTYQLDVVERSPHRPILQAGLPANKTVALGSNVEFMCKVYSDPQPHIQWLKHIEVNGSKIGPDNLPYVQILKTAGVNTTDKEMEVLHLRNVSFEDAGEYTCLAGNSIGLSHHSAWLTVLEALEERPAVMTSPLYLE
The data set is described as follows: SPR grade, FGFR 1 umol/L over immobilized peptide. The method, then: as §4, §5, §6

Data set [9] concerns the target T3, FGFR3 Protein, Human, Recombinant (ECD, His Tag) (Sino Biological, 16044-H08H) (human, UniProt P22607 23-375).
T3 construct: extracellular domain; bought; flowed at 1 umol/L over immobilized peptide
T3 sequence (looked up): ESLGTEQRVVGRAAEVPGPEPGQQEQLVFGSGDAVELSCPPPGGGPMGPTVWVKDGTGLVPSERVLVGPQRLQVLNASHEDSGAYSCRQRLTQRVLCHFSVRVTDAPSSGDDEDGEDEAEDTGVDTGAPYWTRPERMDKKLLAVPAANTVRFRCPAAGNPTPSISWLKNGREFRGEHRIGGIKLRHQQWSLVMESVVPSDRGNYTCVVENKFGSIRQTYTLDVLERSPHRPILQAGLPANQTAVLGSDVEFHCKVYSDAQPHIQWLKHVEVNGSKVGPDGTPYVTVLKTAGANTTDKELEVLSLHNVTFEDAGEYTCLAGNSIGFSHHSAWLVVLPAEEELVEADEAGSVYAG
Nature of the data set: SPR grade, FGFR 1 umol/L over immobilized peptide. The method, then: as §4, §5, §6

Positions of bridges follow the written chain, without caps; N, C: chain ends. Non-standard residues stand in square brackets, D forms with d. No end group written: not given here. COCH2 = acetyl group that carries the bridge; hCys = N[C@@H](CCS)C(=O)O

With “343 (ACVWTFDRHAQEISQALHKVGSGSGSSGSGSSGSSACVWTFDRHAQEISQALHKV; also: cyclic peptide, ring type and places not given here) [compound 343]”, in [1], the “Evaluation result of cell proliferative properties Avian” value is “B (The number of viable cells is 200 cells/well or more and less than 400 cells/well.)”. The “Evaluation result of cell proliferative properties Porcine” value in data set [2] is “B (The number of viable cells is 200 cells/well or more and less than 400 cells/well.)”. Moreover, the “Evaluation result of cell proliferative properties Human” value in [3] was “C (The number of viable cells is 100 cells/well or more and less than 200 cells/well.)”. Further, the “Evaluation result of cell proliferative properties Bovine” value in data set [4] is reported as “A (The number of viable cells is 400 cells/well or more.)”.

As to “344 (ACVWTFDRHAQEISQALHKVACVWTFDRHAQEISQALHKV; also: cyclic peptide, ring type and places not given here) [compound 344]”, the “Evaluation result of cell proliferative properties Avian” value in data set [1] was “B (The number of viable cells is 200 cells/well or more and less than 400 cells/well.)”. Further, in data set [2], the “Evaluation result of cell proliferative properties Porcine” value is “B (The number of viable cells is 200 cells/well or more and less than 400 cells/well.)”. Further, the “Evaluation result of cell proliferative properties Human” value in data set [3] is “B (The number of viable cells is 200 cells/well or more and less than 400 cells/well.)”. In [4], the “Evaluation result of cell proliferative properties Bovine” value is “A (The number of viable cells is 400 cells/well or more.)”.

Consider “A-(C)-VWTFDRHAQEISQALH-(K(acetyl))-VKKK (ACVWTFDRHAQEISQALHK(COCH2)VKKK; thioether 2-19 (inferred)) [SEQ ID NO: 335]”, for which the “residual rate of the cyclic peptide” value in data set [5] turned out to be 15%.

“A-(Hcy)-VWTFDRHAQEISQALH-(K(acetyl))-VKKK (A[hCys]VWTFDRHAQEISQALHK(COCH2)VKKK; thioether 2-19) [SEQ ID NO: 327]”: the “residual rate of the cyclic peptide” value in data set [5] worked out at 28%.

For the molecule ACVWTFDRHAQEISQALHK(COCH2)VKKK (thioether 2-19, chemically synthesized) [cyclic peptide SEQ ID NO: 335], the binding amount (SPR, molecules of cyclic peptide bound per one molecule of FGFR at 10 nmol/L peptide) in [6] is more than 0.7. Also, the “binding amount (SPR, molecules of FGFR per one molecule of cyclic peptide, at 1 umol/L FGFR)” value in [7] was ≥ 0.05 moleculesoffgfr/onemoleculeofthecyclicpeptide; in data set [8] it was ≥ 0.05 moleculesoffgfr/onemoleculeofthecyclicpeptide; in [9], 0.01 to 0.05 moleculesoffgfr/onemoleculeofthecyclicpeptide.
